Assay results taken from patent publication US9284310B2, “Inhibitors of cytomegalovirus” (Boehringer Ingelheim International GmbH, priority 2012, dated 2016).

What was measured:
HCMV AD169 virus [1] = test: HCMV AD169 qPCR 96-Well Assay (Example C); format: cell-based; settings: Human betaherpesvirus 5, AD169, MRC5, 72 h; qPCR of viral DNA, MRC-5 cells, 3 days
Experimental: The hCMV quantitative PCR (qPCR) assay evaluates the ability of a compound to inhibit, directly or indirectly, the replication of hCMV viral DNA during the first 72 h following the infection. Compounds that inhibit either entry or the hCMV polymerase are active in this assay. Compounds are tested in the qPCR assay in 96-well plates, using a 9-point dose-response with 8 compounds for each 96-well plate. The assay was adapted from the method described by Schnepf et al., Rapid determination of antiviral drug susceptibility of human cytomegalovirus by real-time PCR, Antiviral Research 81 (2009) 64-67.
Final Concentrations: • 10 mM Tris-HCl pH8.0 • 50 mM KCl • 2 mM MgCl2 • 0.45% Tween20 • 0.45% Nonidet P40
Serial dilutions of the DMSO stock compound solution are performed using DMSO in columns 2-10. DMSO alone is present in columns 1 and 11. Column 12 remains empty. Diluted compounds are further diluted with DMEM 5% FBS cell culture medium.
To perform the assay, 25 μL of inhibitor dilutions freshly prepared is added to the assay plate containing 50 μL of MRC-5 cells plated the day before (30000 cells per well). In a 9 point dose-response, column 1 contains mock infected cells and serves at negative control, with the appropriate concentration of DMSO, columns 2 to 10 contain compound dilutions and column 11 contains infected cells, with the appropriate concentration of DMSO and serves as the positive control. Column 12 serves for the standard curve in the qPCR process. Twenty-five μL of virus diluted in DMEM 5% FBS medium (to infect at MOI=0.05) is added to columns 2-11 and only D-MEM 5% FBS medium to uninfected control (column 1) for a final DMSO concentration of 0.6%. Incubate plates at 37° C. in 5% CO2 incubator for 3 days. Whole cell lysates are then obtained by adding 100 μL of Cell lysis buffer to each well including freshly added Proteinase K at a ratio of 1:5 (i.e. 200 μL Proteinase K:1000 μL Cell Lysis buffer) and incubating the assay plate at 56° C. for 1 h. Plates are centrifuged at 1300 rpm for 2 minutes to remove any condensation before proceeding with the qPCR.
The cell lysate is carefully pipetted up and down to mix well and diluted 1:40 in H2O to give a final dilution of 1:80 relative to the 100 μL of lysis buffer that Is added to the cells. 5 μL of diluted lysate is used for the qPCR reaction. An incubation of 5 minutes at 95° C. in a PCR machine is required to inactivate the Proteinase K. The cell lysates can be stored at −20° C. or used to perform qPCR immediately.
A 81 bp fragment of US17 gene from AD169 is amplified by PCR using primers qHCMV7 and qHCMV8. The PCR product is cloned into pCR4 TOPO vector (Invitrogen) and a clone harboring the insert is selected. A mitochondrial DNA is also added to normalize the HCMV copy number. Serial dilutions of the US17 plasmid and mitochondrial DNA are performed in heat-inactivated lysis buffer at the same dilution as the cell lysates (1:80). Usually, a standard curve ranging from 10E6 to 10E2 copies (per well) is suitable.
A typical qPCR reaction consists of the following:
A qPCR cycle consists of an initial denaturation of DNA and activation of the Taq enzyme at 95° C. for 10 min followed by 45 cycles of 15 seconds at 95° C. and 1 min at 60° C. Fluorescence is measured at each cycle, following the elongation step at 60° C. The reaction, data acquisition and analysis are performed using AppliedBiosystems 7500 Real time PCR system or other suitable real-time PCR system.

HCMV AD169 virus [2] = test: HCMV AD169 CPE Assay (Example A); format: cell-based; settings: Human betaherpesvirus 5, AD169, MRC5, 216 h, MRC-5 cells, 9 days, MTS readout
Experimental: This assay format is a CPE (Cytopathic effect)-based assay that determines the ability of compounds to protect cells against infection with a dye reduction assay (MTS of CellTiter 96® AQueous Non-Radioactive Cell Proliferation Assay from Promega). The conversion of MTS into aqueous, soluble formazan is performed by dehydrogenase enzymes found in metabolically active cells. The quantity of formazan product determined by absorbance at 490 nm is directly proportional to the number of living cells in culture.
(§1) Serial dilutions of the DMSO stock compound solution are performed using DMSO in columns 2-11 and 14-23. DMSO alone is present in columns 1, 12, 13 and 24. Four μL of the DMSO serial dilutions is obtained and diluted using […] of D-MEM 5% FBS culture medium to obtain 4% DMSO (7×).
To perform the assay, 10 µL of the freshly prepared 4% DMSO serial dilution plate is added to the assay plate containing 40 μL of MRC-5 cells plated the day before (10000 cells per well). Twenty μL of diluted virus is added to columns 2-12 and 14-24 and only D-MEM 5% FBS medium to uninfected control (columns 1 and 13) for a final DMSO concentration of 0.6%.
The virus dilution is based on the amount of virus required to obtain a Signal-to-Background of 3-4 (generally between 0.1 and 1 μL of virus stock per well or MOI=0.05). The assay plates are incubated at 37° C. with 5% CO2 for 9 days in order to obtain 100% CPE in infected control without compound (columns 12 and 24). Ten μL of freshly mixed room temperature MTS/PMS (1:20 v/v) is added and the plates are incubated at 37° C. with 5% CO2 for 4-5 h (until signal saturation at 2.3 in the 100% CPE control). The plates are sealed with TopSeal for biosafety and read on the Envision plate reader (Perkin-Elmer) or equivalent at OD 492 nm.

[3] = tested on: HCMV AD169-Bac-Luc2 US2-US6 clone #26 virus; test: HCMV AD169-Bac Luciferase Assay (Example B); format: cell-based, Human Cytomegalovirus; settings: Human betaherpesvirus 5, AD169, MRC5, 72 h, read-out: EC50 Example B
Excerpt: This assay format is a luciferase reporter-based assay that determines the ability of compounds to inhibit the infection by detecting a luciferase signal decrease following the addition of BIGlo substrate (preparation indicated below) directly in the culture media. Mono-oxygenation of luciferin is catalyzed by luciferase in the presence of Mg2+, ATP and molecular oxygen. The generation of oxyluciferin is a luminescent reaction that can be detected with the proper platereader. Human Cytomegalovirus AD169-Bac is obtained from Dr. Thomas Shenk at Princeton University (reference paper Yu et al. 2002—J. Virol. 76 (5):2316-2328, herein incorpoarated by reference) and modified by recombineering to introduce a humanized firefly luciferase gene (Luc2) at the US2-US6 position in the HCMV genome. The virus is expanded in MRC-5 cells.
as §1
To perform the assay, 7 μL of the freshly prepared 4% DMSO serial dilution plate is added to the assay plate containing […] of MRC-5 cells plated the day before (10000 cells per well). Seventeen μL of diluted virus is added to columns 2-12 and 14-24 and only D-MEM 5% FBS medium to uninfected control (columns 1 and 13) for a final DMSO concentration of 0.6%. The virus dilution is based on the amount of virus required to obtain the highest luciferase signal possible without CPE (generally between 0.05 and 1 μL of virus stock per well or MOI=0.02). The assay plates are incubated at 37° C. with 5% CO2 for 3 days. Fifteen μL of room temperature BIGlo buffer is added to room temperature assay plates also incubated at room temperature for 15 minutes. The plates are sealed with TopSeal for biosafety and the luminescence signal is read on the TopCount plate reader (Perkin-Elmer) or equivalent.

Molecule O=C(Nc1ccc(-c2nnc(Nc3ccccc3)[nH]2)cc1)c1cscn1 [Compound 1039] has an EC50 (HCMV AD169 virus [1]) of 390 nM, an EC50 (HCMV AD169 virus [2]) of 550 nM and an EC50 [3] of 103 nM.
With O=C(Nc1ccc(-c2cnc(-c3cccc(C(F)(F)F)c3)[nH]2)cn1)c1cscn1 [Compound 1052] the EC50 (HCMV AD169 virus [1]) was 1800 nM, the EC50 (HCMV AD169 virus [2]) was 4200 nM and the EC50 [3] was 450 nM.
